How the values were obtained:
Format in all cases: functional
Design in all cases: scale not given: the % may be the effect or the level left
Plasmodium yoelii [1] = experiment: Antimalarial activity as reduced parasitemia at day 4 against multidrug-resistant Plasmodium yoelii in Swiss mice (Mus musculus) at 96 mg/kg Intramuscular dose
Plasmodium yoelii [2] = experiment: Antimalarial activity against multidrug-resistant Plasmodium yoelii in Swiss mice (Mus musculus) as reduced parasitaemia after 4 days at 96 mg/kg peroral dose; details: route oral
Plasmodium yoelii [3] = experiment: Antimalarial activity against multidrug-resistant Plasmodium yoelii in Swiss mice (Mus musculus) as reduced parasitaemia after peroral 48 mg/kg dose for 4 days; details: route oral

| SMILES | Activity (Plasmodium yoelii [1]) [%] | Activity (Plasmodium yoelii [2]) [%] | Activity (Plasmodium yoelii [3]) [%] |
| --- | --- | --- | --- |
| C=C(c1cccc2ccccc12)C1CCOC2(CCCCC2)OO1 (stereo not given) | 22.25 | 17.16 |  |
| C=C(c1ccc(Cl)cc1)C1CCOC2(OO1)C1CC3CC(C1)CC2C3 (stereo not given) | 12.18 | 58.38 |  |
| C=C(c1ccc(-c2ccccc2)cc1)C1CCOC2(CCC(=O)CC2)OO1 (stereo not given) | 100 | 98.49 |  |
| C=C(c1ccccc1)C1CCOC2(CCC(O)CC2)OO1 (stereo not given) | 21.39 | 53.59 |  |
| C=C(c1ccc(-c2ccccc2)cc1)C1CCOC(C)(C)OO1 (stereo not given) | 42.13 | 98.22 |  |
| C=C(c1ccc(-c2ccccc2)cc1)C1CCOC2(CCCCC2)OO1 (stereo not given) | 24.69 | 91.36 |  |
| C=C(c1ccc(-c2ccccc2)cc1)C1CCOC2(CCC(O)CC2)OO1 (stereo not given) | 75.47 | 84.13 |  |
| C=C(c1ccccc1)C1CCOC(C)(C)OO1 (stereo not given) | 87.31 | 92.38 |  |
| C=C(c1ccc(Cl)cc1)C1CCOC2(CCCCC2)OO1 (stereo not given) | 46.91 | 24.69 |  |
| C=C(c1ccc(-c2ccccc2)cc1)C1CCOC2(CCCC2)OO1 (stereo not given) | 42.36 | 64.38 |  |
| C=C(c1ccccc1)C1CCOC2(CCCC2)OO1 (stereo not given) | 58.71 | 18.21 |  |
| C=C(c1ccccc1)C1CCOC2(CCC(=O)CC2)OO1 (stereo not given) | 36.6 | 72.02 |  |
| C=C(c1cccc2ccccc12)C1CCOC2(OO1)C1CC3CC(C1)CC2C3 (stereo not given) | 11.11 | 38.27 |  |
| C=C(c1ccccc1)C1CCOC2(CCCCC2)OO1 (stereo not given) | 9.38 | 35.8 |  |
| C=C(c1ccc(Cl)cc1)C1CCOC(C)(C)OO1 (stereo not given) | 57.64 | 48.77 |  |
| C=C(c1ccc(Cl)cc1)C1CCOC2(CCC(O)CC2)OO1 (stereo not given) | 11.47 | 54.59 |  |
| C=C(c1ccc(Cl)cc1)C1CCOC2(CCCC2)OO1 (stereo not given) | 6.17 | 27.16 |  |
| C=C(c1cccc2ccccc12)C1CCOC(C)(C)OO1 (stereo not given) | 32.1 | 70.37 |  |
| C=C(c1ccc(Cl)cc1)C1CCOC2(CCC(=O)CC2)OO1 (stereo not given) | 100 | 23.36 |  |
| C=C(c1ccc(-c2ccccc2)cc1)C1CCOC2(OO1)C1CC3CC(C1)CC2C3 (stereo not given) | 31.98 | 44.78 |  |
| C=C(c1ccccc1)C1CCOC2(OO1)C1CC3CC(C1)CC2C3 (stereo not given) | 27.41 | 57.36 |  |
| C=C(c1cccc2ccccc12)C1CCOC2(CCCC2)OO1 (stereo not given) | 19.8 | 49.75 |  |
| CCO[C@H]1O[C@@H]2O[C@@]3(C)CC[C@H]4[C@H](C)CC[C@@H]([C@H]1C)[C@@]24OO3 [ARTEMOTIL] |  |  | 100 |

Source: ChEMBL document CHEMBL1144005, “Orally active 1,2,4-trioxepanes: synthesis and antimalarial activity of a series of 7-arylvinyl-1,2,4-trioxepanes against multidrug-resistant Plasmodium yoelii in Swiss mice” (2008)
